# According to US11590139B2, “Substituted aminopurine compounds, compositions thereof, and methods of treatment therewith” (Signal Pharmaceuticals, LLC, priority 2014, dated 2023):
# Test system: Lox-IMVI melanoma cell line
# Test: Lox-IMVI anti-proliferative assay (growth inhibition, Cell Titer-Glo)
# Assay type: cell-based, human
# Details: Homo sapiens; IC50 activity level in the cell-based Lox-IMVI anti-proliferative assay; read-out: Activity
# Method in brief: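 Growth inhibition is assessed over 72 h in RPMI + 10% FBS at 0.2% DMSO, with ATP-based luminescence used as the viability measure. IC50 is fitted from normalized dose-response data.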
row,SMILES,IC50 [nM]
1,"NC(=O)[C@H]1CC[C@@H](n2c(Nc3c(F)cccc3F)nc3cnc(N[C@@H]4CC[C@@H](O)C4)nc32)CC1 [Example 209, (1S,4s)-4-(8-(2,6-difluorophenylamino)-2-((1R,3R)-3-hydroxycyclopentylamino)-9H-purin-9-yl)cyclohexanecarboxamide]",> 1000
2,"NC(=O)[C@H]1CC[C@@H](n2c(Nc3c(F)cc(Cl)cc3F)nc3cnc(N[C@H]4C[C@H](O)C4)nc32)CC1 [Example 283, (1s,4s)-4-(8-(4-chloro-2,6-difluorophenylamino)-2-((1r,3r)-3-hydroxycyclobutylamino)-9H-purin-9-yl)cyclohexanecarboxamide]",> 1000
3,"CC(C)(C)OC(=O)N1CCC[C@@H](Nc2ncc3nc(Nc4c(F)cccc4F)n([C@H]4CC[C@@H](C(N)=O)CC4)c3n2)C1 [Example 159, (R)-tert-butyl 3-(9-((1s,4S)-4-carbamoylcyclohexyl)-8-(2,6-difluorophenylamino)-9H-purin-2-ylamino)piperidine-1-carboxylate]",> 1000
4,"NC(=O)[C@H]1CC[C@@H](n2c(Nc3ccc(Cl)c(Cl)c3F)nc3cnc(NC4CCOCC4)nc32)CC1 [Example 112, (1s,4s)-4-(8-(3,4-dichloro-2-fluorophenylamino)-2-(tetrahydro-2H-pyran-4-ylamino)-9H-purin-9-yl)cyclohexanecarboxamide]",250 to 500
5,"N#Cc1cc(F)c(Nc2nc3cnc(NC4CCCC4)nc3n2[C@H]2CC[C@@H](C(N)=O)CC2)c(Cl)c1 [Example 369, (1s,4s)-4-(8-(2-chloro-4-cyano-6-fluorophenylamino)-2-(cyclopentylamino)-9H-purin-9-yl)cyclohexanecarboxamide]",250 to 500
6,"NC(=O)[C@H]1CC[C@@H](n2c(Nc3c(F)cc(Cl)cc3Cl)nc3cnc(NC4CCS(=O)(=O)CC4)nc32)CC1 [Example 157, (1s,4s)-4-(8-((2,4-dichloro-6-fluorophenyl)amino)-2-((1,1-dioxidotetrahydro-2H-thiopyran-4-yl)amino)-9H-purin-9-yl)cyclohexane-1-carboxamide]",> 1000
7,"NC(=O)[C@H]1CC[C@@H](n2c(Nc3c(Cl)cc(Cl)cc3Cl)nc3cnc(N[C@H]4CCOC[C@H]4F)nc32)CC1 [Example 303, (1R,4s)-4-(2-((3S,4S)-3-fluorotetrahydro-2H-pyran-4-ylamino)-8-(2,4,6-trichlorophenylamino)-9H-purin-9-yl)cyclohexanecarboxamide]",< 250
8,"C[C@H](CO)Nc1ncc2nc(Nc3c(Cl)cc(F)cc3Cl)n([C@H]3CC[C@@H](C(N)=O)CC3)c2n1 [Example 131, (1S,4s)-4-(8-(2,6-dichloro-4-fluorophenylamino)-2-((R)-1-hydroxypropan-2-ylamino)-9H-purin-9-yl)cyclohexanecarboxamide]",> 1000
9,"NC(=O)[C@H]1CC[C@@H](n2c(Nc3c(F)cccc3Cl)nc3cnc(N[C@@H]4CCC[C@H]4O)nc32)CC1 [Example 250, (1S,4s)-4-(8-(2-chloro-6-fluorophenylamino)-2-((1R,2R)-2-hydroxycyclopentylamino)-9H-purin-9-yl)cyclohexanecarboxamide]",> 1000
10,"NC(=O)[C@H]1CC[C@@H](n2c(Nc3c(F)cc(F)cc3Cl)nc3cnc(N[C@H]4CCCOC4)nc32)CC1 [Example 245, (1R,4s)-4-(8-(2-chloro-4,6-difluorophenylamino)-2-((S)-tetrahydro-2H-pyran-3-ylamino)-9H-purin-9-yl)cyclohexanecarboxamide]",> 1000

# Same assay, conditions: Homo sapiens; Lox-IMVI anti-proliferative assay, IC50 activity level; read-out: Activity
row,SMILES,IC50 [nM]
1,"NC(=O)[C@H]1CC[C@@H](n2c(Nc3c(F)cc(Cl)cc3Cl)nc3cnc(N[C@H](CO)C(F)(F)F)nc32)CC1 [Example 471, (1S,4s)-4-(8-(2,4-dichloro-6-fluorophenylamino)-2-((R)-1,1,1-trifluoro-3-hydroxypropan-2-ylamino)-9H-purin-9-yl)cyclohexanecarboxamide]",> 1000
2,"COC(=O)N1CCC[C@@H](Nc2ncc3nc(Nc4c(F)cc(F)cc4Cl)n([C@H]4CC[C@@H](C(N)=O)CC4)c3n2)C1 [Example 407, (R)-methyl 3-(9-((1s,4S)-4-carbamoylcyclohexyl)-8-(2-chloro-4,6-difluorophenylamino)-9H-purin-2-ylamino)piperidine-1-carboxylate]",> 1000
3,"N#Cc1cc(F)c(Nc2nc3cnc(N[C@@H]4CCC[C@H](O)C4)nc3n2[C@H]2CC[C@@H](C(N)=O)CC2)c(Cl)c1 [Example 456, (1S,4s)-4-(8-(2-chloro-4-cyano-6-fluorophenylamino)-2-((1R,3S)-3-hydroxycyclohexylamino)-9H-purin-9-yl)cyclohexanecarboxamide]",500 to 1000
4,"N#Cc1cc(F)c(Nc2nc3cnc(NC4CC5(COC5)C4)nc3n2[C@H]2CC[C@@H](C(N)=O)CC2)c(Cl)c1 [Example 572, (1s,4s)-4-(2-(2-oxaspiro[3.3]heptan-6-ylamino)-8-(2-chloro-4-cyano-6-fluorophenylamino)-9H-purin-9-yl)cyclohexanecarboxamide]",500 to 1000
5,"NC(=O)[C@H]1CC[C@@H](n2c(Nc3c(F)cc(F)cc3F)nc3cnc(N[C@@H]4CCOC4)nc32)CC1 [Example 530, (1S,4s)-4-(2-((R)-tetrahydrofuran-3-ylamino)-8-(2,4,6-trifluorophenylamino)-9H-purin-9-yl)cyclohexanecarboxamide]",500 to 1000
6,"N#Cc1cc(Cl)c(Nc2nc3cnc(NC4CC5(COC5)C4)nc3n2[C@H]2CC[C@@H](C(N)=O)CC2)c(Cl)c1 [Example 571, (1s,4s)-4-(2-(2-oxaspiro[3.3]heptan-6-ylamino)-8-(2,6-dichloro-4-cyanophenylamino)-9H-purin-9-yl)cyclohexanecarboxamide]",250 to 500

# Same assay, conditions: Homo sapiens; Lox-IMVI melanoma cell line, anti-proliferative assay; read-out: Activity (IC50 activity level)
row,SMILES,IC50 [nM]
1,"C[C@@H](CO)Nc1ncc2nc(Nc3ccc(C#N)c(Cl)c3Cl)n([C@H]3CC[C@@H](C(N)=O)CC3)c2n1 [Example 694, (1R,4s)-4-(8-(2,3-dichloro-4-cyanophenylamino)-2-((S)-1-hydroxypropan-2-ylamino)-9H-purin-9-yl)cyclohexanecarboxamide]",> 1000
2,"CC1(C)COCC[C@H]1Nc1ncc2nc(Nc3c(Cl)cc(Cl)cc3Cl)n([C@H]3CC[C@@H](C(N)=O)CC3)c2n1 [Example 766, (1S,4s)-4-(2-((R)-3,3-dimethyltetrahydro-2H-pyran-4-ylamino)-8-(2,4,6-trichlorophenylamino)-9H-purin-9-yl)cyclohexanecarboxamide]",500 to 1000
3,"C[C@]1(C(N)=O)CC[C@@H](n2c(Nc3c(F)cc(F)cc3Cl)nc3cnc(NC4CCC4)nc32)CC1 [Example 604, (1s,4s)-4-(8-(2-chloro-4,6-difluorophenylamino)-2-(cyclobutylamino)-9H-purin-9-yl)-1-methylcyclohexanecarboxamide]",< 250
4,"CCN1CCC[C@@H](Nc2ncc3nc(Nc4c(Cl)cc(C#N)cc4Cl)n([C@H]4CC[C@@H](C(N)=O)CC4)c3n2)C1 [Example 733, (1S,4s)-4-(8-(2,6-dichloro-4-cyanophenylamino)-2-((R)-1-ethylpiperidin-3-ylamino)-9H-purin-9-yl)cyclohexanecarboxamide]",> 1000
5,"NC(=O)[C@H]1CC[C@@H](n2c(Nc3c(Cl)cc(F)cc3Cl)nc3cnc(NC[C@@H]4CCCC[C@@H]4O)nc32)CC1 [Example 656, (1R,4s)-4-(8-(2,6-dichloro-4-fluorophenylamino)-2-(((1S,2S)-2-hydroxycyclohexyl)methylamino)-9H-purin-9-yl)cyclohexanecarboxamide]",> 1000
